Patent US9150519B2, “6-amino-pyrimidine-4-carboxamide derivatives and related compounds which bind to the sphingosine 1-phosphate (S1P) receptor for the treatment of multiple sclerosis” (MERCK SERONO SA, priority 2007, dated 2015)
pEC50: −log10 of the molar value.

Tests used:
S1P3 = S1P3 (Homo sapiens (Human), UniProt Q99500); assay: 35S-GTPγS binding assay, S1P3 membranes; type: biochemical; conditions: membranes from CHO cells expressing S1P3; read-out: S1P3 GTPyS EC50
Description: (§1) Membranes were prepared from CHO cells expressing S1P1 or S1P3 for use in ligand and […] binding studies. Cells were suspended in 50 mM TRIS, pH 7.4, 2 mM EDTA, 250 mM Sucrose (buffer A) and 1× Complete protease inhibitor cocktail (Roche), and disrupted at 4° C. by nitrogen decompression using a cell disruption bomb (Parr Instrument). Following centrifugation at 1000 RPM for 10 min at 4° C., the supernatant was suspended in buffer A and centrifuged again at 19000 RPM for 60 min at 4° C. The pellet was then suspended in 10 mM HEPES, pH 7.4, 1 mM EDTA, 250 mM Sucrose (Buffer B), and 1× Complete EDTA-free protease inhibitor cocktail and homogenized using a potter. Membranes were flash frozen in liquid nitrogen and stored at −80° C. [33P]sphingosine 1-phosphate (3000 Ci/mmol; American Radiolabeled Chemicals, Inc.) was added to test compounds in DMSO. Membranes and WGA SPA beads (GE Healthcare) were added to give a final volume of 100 μl in 96-well plates with assay concentrations of 25 μM or 10 μM [33P]sphingosine 1-phosphate (respectively for S1P1 or S1P3), 50 mM HEPES, pH 7.5, 5 mM MgCl2, 100 mM NaCl, 0.4% fatty acid-free BSA, 1-5 μg/well of proteins and 100 μg/well of WGA SPA beads. Binding was performed for 60 min at room temperature on a shaker and bound radioactivity was measured on a PerkinElmer 1450 MicroBeta counter. Specific binding was calculated by subtracting remaining radioactivity in the presence of 1000-fold excess of unlabeled S1P. Binding data were analyzed using the GraphPad Prism program.
Measurements of ^35S-GTPγS Binding: Membranes (1 to 10 μg protein) prepared as described above, were incubated in 96-well Scintiplates (PerkinElmer) with test compounds diluted in DMSO, in 180 μl of 20 mM HEPES, pH 7.4, 10 mM MgCl2, 2 μg/well Saponin, 0.2% fatty acid free BSA (Assay buffer), 140 mM NaCl and 1.7 μM GDP. The assay was initiated with the addition of 20 μl of 1.5 nM [35S]-GTPγS (1100 Ci/mmol; GE Healthcare) in assay buffer. After 60 min incubation at 30° C. on a shaker, plates were centrifuged for 10 min at 2000 RPM. Supernatant was discarded and membrane bound radioactivity was measured on a PerkinElmer 1450 MicroBeta counter. Triplicate samples were averaged and expressed as % response relative to SIP activation in absence of compound (n=2).

S1P1 = S1P1 (Homo sapiens (Human), UniProt P21453); assay: 35S-GTPγS binding assay, S1P1 membranes; type: biochemical; conditions: membranes from CHO cells expressing S1P1; read-out: S1P1 GTPyS EC50
Chain of S1P1 (P21453 whole entry, species assumed): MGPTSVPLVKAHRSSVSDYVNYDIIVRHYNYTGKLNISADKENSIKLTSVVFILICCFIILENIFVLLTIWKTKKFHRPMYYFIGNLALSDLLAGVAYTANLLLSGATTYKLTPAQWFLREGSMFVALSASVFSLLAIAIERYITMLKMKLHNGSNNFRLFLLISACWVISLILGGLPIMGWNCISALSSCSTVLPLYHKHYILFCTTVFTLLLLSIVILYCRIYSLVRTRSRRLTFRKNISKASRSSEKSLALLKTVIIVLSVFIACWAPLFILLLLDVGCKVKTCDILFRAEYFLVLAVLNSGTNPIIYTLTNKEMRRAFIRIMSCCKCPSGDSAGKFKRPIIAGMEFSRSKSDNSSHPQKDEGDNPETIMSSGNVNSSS
Description: as §1, with “Membranes and WGA SPA beads (GE Healthcare) were added to give a final volume of 100 μl in 96-well plates with assay concentrations of 25 μM or 10 μM [33P]sphingosine 1-phosphate (respectively for S1P1 or S1P3), 50 mM HEPES, pH 7.5, 5 mM MgCl2, 100 mM NaCl, 0.4% fatty acid-free BSA, 1-5 μg/well of proteins and 100 μg/well of WGA SPA beads.” left out
The assay was initiated with the addition of 20 μl of 1.5 nM [35S]-GTPγS (1100 Ci/mmol; GE Healthcare) in assay buffer. After 60 min incubation at 30° C. on a shaker, plates were centrifuged for 10 min at 2000 RPM. Supernatant was discarded and membrane bound radioactivity was measured on a PerkinElmer 1450 MicroBeta counter. Triplicate samples were averaged and expressed as % response relative to SIP activation in absence of compound (n=2).

Chain of S1P3 (Q99500 whole entry, species assumed): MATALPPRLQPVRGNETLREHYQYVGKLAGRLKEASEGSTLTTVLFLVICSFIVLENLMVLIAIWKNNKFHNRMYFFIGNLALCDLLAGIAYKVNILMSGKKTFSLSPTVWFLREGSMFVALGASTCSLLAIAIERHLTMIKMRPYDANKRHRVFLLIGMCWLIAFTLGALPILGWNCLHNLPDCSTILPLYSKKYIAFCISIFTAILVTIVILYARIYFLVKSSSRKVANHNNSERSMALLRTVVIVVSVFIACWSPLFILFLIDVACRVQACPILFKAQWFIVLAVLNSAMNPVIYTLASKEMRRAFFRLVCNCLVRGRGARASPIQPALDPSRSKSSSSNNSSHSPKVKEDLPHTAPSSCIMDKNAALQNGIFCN

Row | pEC50 (S1P3) | pEC50 (S1P1) | SMILES
1 | < 4.70 | 7.41 | Cc1cc(S(N)(=O)=O)ccc1NC(=O)c1cc(N(CC(C)C)C2CCCC2)ncn1 [Example 1-58]
2 | < 4.70 | 7.32 | O=C(Nc1cccc2[nH]ncc12)c1cc(N(CC2CC2)C2CCCCC2)ncn1 [Example 1-127]
3 | 7.21 | – | Cc1cc(S(=O)(=O)NCCC(=O)O)ccc1NC(=O)c1cc(N(CC2CC2)C2CCCCC2)ncn1 [Example 1-62]
4 | < 4.70 | 7.20 | CCCN(CC1CC1)c1cc(C(=O)Nc2ccc(S(=O)(=O)NC)cc2C)ncn1 [Example 1-109]
5 | 6.59 | 7.92 | Cc1cc(S(=O)(=O)NCC(=O)O)ccc1NC(=O)c1cc(N(CC2CC2)C2CCCCC2)ncn1 [Example 1-61]
6 | 5.94 | 7.72 | O=C(Nc1ccnc2ccccc12)c1cc(N(CC2CC2)C2CCCCC2)ncn1 [Example 1-46]
7 | < 4.70 | 8.22 | O=C(Nc1cccc2[nH]ccc12)c1cc(N(CC2CC2)C2CCCCC2)ncn1 [Example 1-126]
8 | < 4.70 | – | CCCN(CC1CC1)c1cc(C(=O)Nc2ccc(S(N)(=O)=O)cc2C)ncn1 [Example 1-56]
9 | < 4.70 | 7.44 | CCCN(CCC)c1cc(C(=O)Nc2ccc(S(N)(=O)=O)cc2C)ncn1 [Example 1-57]
10 | 5.49 | 8.22 | Cc1cc2[nH]ncc2cc1NC(=O)c1cc(N(CC2CC2)C2CCCCC2)ncn1 [Example 1-47]
11 | 5.61 | 8.24 | CNS(=O)(=O)c1ccc(NC(=O)c2cc(N(CC3CC3)C3CCCCC3)ncn2)c(C)c1 [Example 1-105]
12 | < 4.70 | 7.92 | CCCN(CC1CC1)c1cc(C(=O)Nc2cc3cn[nH]c3cc2C)ncn1 [Example 1-71]
13 | < 4.70 | 7.29 | CCCN(c1cc(C(=O)Nc2ccc(S(N)(=O)=O)cc2C)ncn1)C(C)C [Example 1-60]
14 | 5.48 | 7.72 | COCCNS(=O)(=O)c1ccc(NC(=O)c2cc(N(CC3CC3)C3CCCCC3)ncn2)c(C)c1 [Example 1-107]
15 | 4.49 | 5.75 | CN(c1cc(C(=O)Nc2ccc3c(c2)CC(=O)N3)ncn1)C1CCCCC1 [Example 1-41]
16 | 6.63 | – | O=C(Nc1ccc(CN2CC(C(=O)O)C2)cc1)c1cc(N(CC2CC2)C2CCCCC2)ncn1 [Example 1-84]
17 | < 4.70 | 8.05 | O=C(Nc1ccc2[nH]ncc2c1)c1cc(N(CC2CC2)C2CCCCC2)ncn1 [Example 1-44]
18 | 6.11 | 7.32 | COC(=O)CCNCc1ccc(NC(=O)c2cc(N(CC3CC3)C3CCCCC3)ncn2)cc1 [Example 1-76]
19 | 5.70 | 8.54 | CCCN(c1cc(C(=O)Nc2ccc(S(N)(=O)=O)cc2C)ncn1)C1CCCCC1 [Example 1-54]
20 | < 4.52 | – | O=C(Nc1ccc(O)cc1)c1cc(NC2CCCCC2)ncn1 [Example 1-53]
21 | < 4.70 | – | CCCN(CC1CC1)c1cc(C(=O)Nc2ccc(CNCC(=O)O)cc2C)ncn1 [Example 1-100]
22 | 7.07 | 7.40 | O=C(O)CCCS(=O)(=O)c1ccc(NC(=O)c2cc(N(CC3CC3)C3CCCCC3)ncn2)cc1 [Example 1-132]
23 | 5.88 | – | Cc1cc(S(=O)(=O)NCCCC(=O)O)ccc1NC(=O)c1cc(N(CC2CC2)C2CCCCC2)ncn1 [Example 1-63]
24 | < 4.70 | 5.82 | CN(c1cc(C(=O)Nc2ccc(S(=O)(=O)NCC(O)CO)cc2)ncn1)C1CCCCC1 (centres unmarked) [Example 1-40]
25 | 6.38 | 7.89 | CCCN(CC1CC1)c1cc(C(=O)Nc2ccc3[nH]ncc3c2)ncn1 [Example 1-45]

The next lines start with the compound.

Row | SMILES | pEC50 (S1P3) | pEC50 (S1P1)
26 | CCC(C)Oc1cc(C(=O)Nc2ccc(O)cc2C)ncn1 (centres unmarked) [Example 1-36] | < 4.70 | 5.53
27 | O=C(Nc1ccc2[nH]ncc2c1)c1cc(NC2CCCCC2)ncn1 [Example 1-28] | < 4.52 | –
28 | Cc1cc(O)ccc1NC(=O)c1cc(NC2CCCCC2)ncn1 [Example 1-1] | < 4.52 | –
29 | O=C(Nc1ccc(O)cc1C(F)(F)F)c1cc(NC2CCCCC2)ncn1 [Example 1-15] | < 4.52 | 6.42
30 | CN(c1cc(C(=O)Nc2ccc3[nH]ncc3c2)ncn1)C1CCCCC1 [Example 1-35] | < 4.70 | 6.38
31 | Cc1cc(S(N)(=O)=O)ccc1NC(=O)c1cc(NC2CCCCC2)ncn1 [Example 1-18] | < 4.52 | 6.36
32 | O=C(Nc1ccc(O)cc1)c1cc(OC2CCCCC2)ncn1 [Example 1-26] | < 4.52 | 6.62
33 | O=C(Nc1ccnc2ccccc12)c1cc(NC2CCCCC2)ncn1 [Example 1-16] | 5.28 | 5.97
34 | CCCN(CCC)c1cc(C(=O)Nc2ccc(O)cc2)ncn1 [Example 1-22] | 5.63 | 6.43
35 | CS(=O)(=O)Nc1ccc(NC(=O)c2cc(NC3CCCCC3)ncn2)cc1 [Example 1-13] | < 4.52 | –
36 | Cc1cc(O)ccc1NC(=O)c1cc(N(CC2CC2)C2CCCCC2)ncn1 [Example 1-33] | 4.00 | 7.61
37 | Cc1cc(S(N)(=O)=O)ccc1NC(=O)c1cc(N(CC2CC2)C2CCCCC2)ncn1 [Example 1-38] | 4.32 | 8.70
38 | Cc1cc(S(N)(=O)=O)ccc1NC(=O)c1cc(N(C)C2CCCCC2)ncn1 [Example 1-29] | < 4.52 | 7.19
39 | Cc1cc2[nH]ncc2cc1NC(=O)c1cc(N(C)C2CCCCC2)ncn1 [Example 1-39] | 5.63 | 6.68
40 | O=C(Nc1ccc(O)cc1F)c1cc(NC2CCCCC2)ncn1 [Example 1-7] | < 4.52 | –
41 | Cc1cc(O)ccc1NC(=O)c1cc(OC2CCCCC2)ncn1 [Example 1-34] | < 4.70 | 6.88
42 | CCN(c1cc(C(=O)Nc2ccc(O)cc2C)ncn1)C1CCCCC1 [Example 1-25] | < 4.52 | 6.40
